Structures are written as SMILES.

The values that follow come from US12390532B2, “ALK protein regulator and anti-tumor application thereof” (SHANGHAITECH UNIVERSITY, priority 2019, dated 2025).

One assay concerns SR cells (NPM-ALK, human anaplastic large cell lymphoma cells). Briefly: Proliferation inhibition (IC50) in SR cells, CCK8 (WST) reagent. In kind it is cell-based. As to conditions: 72 h, SR cells, WST reagent, 72 hours, read-out: IC50 (half inhibitory concentration), Brigatinib series in lymphoma cell lines. On the procedure: The ALK gene rearrangement positive cell line used was SR cells (NPM-ALK, human anaplastic large cell lymphoma cells). MDA-MB231 was a triple-negative breast cancer cell. Both SR cells and MDA-MB231 cells were purchased from ATCC.
The tumor cell line used was daily cultured in a 37° C. incubator containing 5% CO2. The medium was RPMI1640 supplemented with 10% FCS and Penicillin-Streptomycin.
The IC50 of the compound of the present disclosure was determined using Promega's Cell Titer Blue, Cell Titer GLO or commercially available WST reagents. The specific steps were as follows: the cells were seeded in a 96-well plate containing 100 microliters of RPMI medium containing serum at a number of 2000 cells/well. On the second day, the original drug and the compound of the present disclosure were serially diluted and added to the cells. After 72 hours of treatment with the compound of the present disclosure, the cell activity detection reagent was added to the culture medium for cell activity determination according to the instructions. The negative control was DMSO, and the positive control was the original drug, and the cells were treated in the same manner as the compound of the present disclosure. The growth inhibition of the compounds of the present disclosure on cells was plotted by Prism Graphpad software and the IC50 of the compounds of the present disclosure was counted from it.
We conducted dose-dependent experiments on the designed and synthesized compounds of the present disclosure in SR cells. […] The cells were treated with different concentrations of compounds (starting at 10 μM, 3 times dilution factor, 10 concentrations). After 72 hours, the cells were detected using CCK8 reagent (WST).
Consider `COc1cc(N2CCC(N3CCN(CCCCCC#Cc4cccc5c4CN(C4CCC(=O)NC4=O)C5=O)CC3)CC2)ccc1Nc1ncc(Cl)c(Nc2ccccc2P(C)(C)=O)n1` (stereo not shown) [SIAIS293015, 3-(4-(7-(4-(1-(4-((5-chloro-4-((2-(dimethylphosphono)phenyl)amino)pyrimidin-2-yl)amino)-3-methoxyphenyl)piperidin-4-yl)piperazin-1-yl)hept-1-yn-1-yl)-1-oxoisoindolin-2-yl)piperidine-2,6-dione], for which the IC50 is 1.2 nM.
Same read-out and setting: to `COc1cc(N2CCC(N3CCN(C(=O)COc4cccc5c4C(=O)N(C4CCC(=O)NC4=O)C5=O)CC3)CC2)ccc1Nc1ncc(Cl)c(Nc2ccccc2P(C)(C)=O)n1` (stereo not shown) [SIAIS293016, 4-(2-(4-(1-(4-((5-chloro-4-((2-(dimethylphosphono)phenyl)amino)pyrimidin-2-yl)amino)-3-methoxyphenyl)piperidin-4-yl)piperazin-1-yl)-2-oxoethoxy)-2-(2,6-dioxopiperidin-3-yl)isoindoline-1,3-dione] belongs 7.2 nM; to `COc1cc(N2CCC(NCCCCCCSc3cccc4c3CN(C3CCC(=O)NC3=O)C4=O)CC2)ccc1Nc1ncc(Cl)c(Nc2ccccc2P(=O)(OC)OC)n1` (stereo not shown) [SIAIS293110, 3-(4-((6-((1-(4-((5-chloro-4-((2-(dimethylphosphono)phenyl)amino)pyrimidin-2-yl)amino)-3-methoxyphenyl)piperidin-4-yl)amino)hexyl)thio)-1-oxoisoindolin-2-yl)piperidine-2,6-dione], 0.33 ± 0.11 nM; to `COc1cc(N2CCC(N3CCN(CCCC#Cc4cccc5c4C(=O)N(C4CCC(=O)NC4=O)C5=O)CC3)CC2)ccc1Nc1ncc(Cl)c(Nc2ccccc2P(C)(C)=O)n1` (stereo not shown) [SIAIS352010, 4-(5-(4-(1-(4-((5-chloro-4-((2-(dimethylphosphono)phenyl)amino)pyrimidin-2-yl)amino)-3-methoxyphenyl)piperidin-4-yl)piperazin-1-yl)pent-1-yn-1-yl)-2-(2,6-dioxopiperidin-3-yl)isoindoline-1,3-dione], 19 ± 5.8 nM.

Staying with this assay, now noted: 72 h, read-out: IC50 (half inhibitory concentration), Alectinib series in lymphoma cell lines, SR cells, WST reagent, 72 hours.
As to `CCc1cc2c(cc1N1CCC(N)CC1)C(C)(C)c1[nH]c3cc(C#N)ccc3c1C2=O` [Alectinib derivative B (SIAIS184193), 8-(4-aminopiperidin-1-yl)-9-ethyl-6,6-dimethyl-11-oxo-6,11-dihydro-5H-benzo[b]carbazole-3-carbonitrile], the IC50 is 9.1 ± 5.5 nM.
`CCc1cc2c(cc1N1CCC(N3CCNCC3)CC1)C(C)(C)c1[nH]c3cc(C#N)ccc3c1C2=O` [Alectinib derivative C (SIAIS184192), 9-Ethyl-6,6-dimethyl-11-oxo-8-(4-(piperazin-1-yl)piperidin-1-yl)-6,11-dihydro-5H-benzo[b]carbazole-3-carbonitrile]: the IC50 is 10.1 ± 4.3 nM.
For `CCc1cc2c(cc1N1CCC(N3CCN(C(=O)CCCNc4cccc5c4CN(C4CCC(=O)NC4=O)C5=O)CC3)CC1)C(C)(C)c1[nH]c3cc(C#N)ccc3c1C2=O` (stereo not shown) [SIAIS262092, 8-(4-(4-(4-((2-(2,6-dioxopiperidin-3-yl)-1-oxoisoindolin-4-yl)amino)butyryl)piperazin-1-yl)piperidin-1-yl)-9-ethyl-6,6-dimethyl-11-oxo-6,11-dihydro-5H-benzo[b]carbazole-3-carbonitrile], the IC50 worked out at 1.37 ± 0.87 nM.
As for `CCc1cc2c(cc1N1CCC(N3CCN(C(=O)CCCCNc4cccc5c4CN(C4CCC(=O)NC4=O)C5=O)CC3)CC1)C(C)(C)c1[nH]c3cc(C#N)ccc3c1C2=O` (stereo not shown) [SIAIS262093, 8-(4-(4-(5-((2-(2,6-dioxopiperidin-3-yl)-1-oxoisoindolin-4-yl)amino)pentanoyl)piperazin-1-yl)piperidin-1-yl)-9-ethyl-6,6-dimethyl-11-oxo-6,11-dihydro-5H-benzo[b]carbazole-3-carbonitrile], the IC50 was determined as 2.65 ± 1.72 nM.
As for `CCc1cc2c(cc1N1CCC(N3CCN(C(=O)CCCCCCNc4cccc5c4CN(C4CCC(=O)NC4=O)C5=O)CC3)CC1)C(C)(C)c1[nH]c3cc(C#N)ccc3c1C2=O` (stereo not shown) [SIAIS262095, 8-(4-(4-(7-((2-(2,6-dioxopiperidin-3-yl)-1-oxoisoindolin-4-yl)amino)heptanoyl)piperazin-1-yl)piperidin-1-yl)-9-ethyl-6,6-dimethyl-1-oxo-6,11-dihydro-5H-benzo[b]carbazole-3-carbonitrile], the IC50 is 3.2 ± 1.93 nM.
The same measure, in the same setting: to `CCc1cc2c(cc1N1CCC(N3CCN(CCCCC#Cc4cccc5c4CN(C4CCC(=O)NC4=O)C5=O)CC3)CC1)C(C)(C)c1[nH]c3cc(C#N)ccc3c1C2=O` (stereo not shown) [SIAIS293002, 8-(4-(4-(6-(2-(2,6-dioxopiperidin-3-yl)-1-oxoisoindolin-4-yl)hex-5-yn-1-yl)piperazin-1-yl)piperidin-1-yl)-9-ethyl-6,6-dimethyl-11-oxo-6,11-dihydro-5H-benzo[b]carbazole-3-carbonitrile] belongs 2.9 nM; to `CCc1cc2c(cc1N1CCC(N3CCN(CCCCCCCC#Cc4cccc5c4CN(C4CCC(=O)NC4=O)C5=O)CC3)CC1)C(C)(C)c1[nH]c3cc(C#N)ccc3c1C2=O` (stereo not shown) [SIAIS293004, 8-(4-(4-(9-(2-(2,6-dioxopiperidin-3-yl)-1-oxoisoindolin-4-yl)non-8-yn-1-yl)piperazin-1-yl)piperidin-1-yl)-9-ethyl-6,6-dimethyl-11-oxo-6,11-dihydro-5H-benzo[b]carbazole-3-carbonitrile], 9.5 nM; to `CCc1cc2c(cc1N1CCC(N3CCN(CCCCc4cccc5c4CN(C4CCC(=O)NC4=O)C5=O)CC3)CC1)C(C)(C)c1[nH]c3cc(C#N)ccc3c1C2=O` (stereo not shown) [SIAIS293005, 8-(4-(4-(4-(2-(2,6-dioxopiperidin-3-yl)-1-oxoisoindolin-4-yl)butyl)piperazin-1-yl)piperidin-1-yl)-9-ethyl-6,6-dimethyl-11-oxo-6,11-dihydro-5H-benzo[b]carbazole-3-carbonitrile], 1.9 nM.
Turning to `CCc1cc2c(cc1N1CCC(N3CCN(CCCCCNc4cccc5c4C(=O)N(C4CCC(=O)NC4=O)C5=O)CC3)CC1)C(C)(C)c1[nH]c3cc(C#N)ccc3c1C2=O` (stereo not shown) [SIAIS293008, 8-(4-(4-(5-((2-(2,6-dioxopiperidin-3-yl)-1,3-dioxoisoindolin-4-yl)amino)pentyl)piperazin-1-yl)piperidin-1-yl)-9-ethyl-6,6-dimethyl-11-oxo-6,11-dihydro-5H-benzo[b]carbazole-3-carbonitrile], the IC50 was found to be 5.2 nM.
As for `CCc1cc2c(cc1N1CCC(N3CCN(CCCCCCNc4cccc5c4C(=O)N(C4CCC(=O)NC4=O)C5=O)CC3)CC1)C(C)(C)c1[nH]c3cc(C#N)ccc3c1C2=O` (stereo not shown) [SIAIS293009, 8-(4-(4-(6-((2-(2,6-dioxopiperidin-3-yl)-1,3-dioxoisoindolin-4-yl)amino)hexyl)piperazin-1-yl)piperidin-1-yl)-9-ethyl-6,6-dimethyl-11-oxo-6,11-dihydro-5H-benzo[b]carbazole-3-carbonitrile], the IC50 turned out to be 15.1 nM.
Still for that read-out and setting: as for `CCc1cc2c(cc1N1CCC(NC(=O)CCCCNc3cccc4c3CN(C3CCC(=O)NC3=O)C4=O)CC1)C(C)(C)c1[nH]c3cc(C#N)ccc3c1C2=O` (stereo not shown) [SIAIS293012, N-(1-(3-cyano-9-ethyl-6,6-dimethyl-11-oxo-6,11-dihydro-5H-benzo[b]carbazol-8-yl)piperidin-4-yl)-5-((2-(2,6-dioxopiperidin-3-yl)-1-oxoisoindolin-4-yl)amino)pentanamide], the figure is 10.3 ± 5.1 nM; as for `CCc1cc2c(cc1N1CCC(N3CCN(CCCCCC#Cc4cccc5c4CN(C4CCC(=O)NC4=O)C5=O)CC3)CC1)C(C)(C)c1[nH]c3cc(C#N)ccc3c1C2=O` (stereo not shown) [SIAIS293014, 8-(4-(4-(7-(2-(2,6-dioxopiperidin-3-yl)-1-oxoisoindolin-4-yl)hept-6-yn-1-yl)piperazin-1-yl)piperidin-1-yl)-9-ethyl-6,6-dimethyl-11-oxo-6,11-dihydro-5H-benzo[b]carbazole-3-carbonitrile], 3.2 nM; as for `CCc1cc2c(cc1N1CCC(N3CCN(CCCCSc4cccc5c4CN(C4CCC(=O)NC4=O)C5=O)CC3)CC1)C(C)(C)c1[nH]c3cc(C#N)ccc3c1C2=O` (stereo not shown) [SIAIS293060, 8-(4-(4-(4-((2-(2,6-dioxopiperidin-3-yl)-1-oxoisoindolin-4-yl)thio)butyl)piperazin-1-yl)piperidin-1-yl)-9-ethyl-6,6-dimethyl-11-oxo-6,11-dihydro-5H-benzo[b]carbazole-3-carbonitrile], 0.1 ± 0.02 nM.
With `CCc1cc2c(cc1N1CCN(CCCCCc3cccc4c3CN(C3CCC(=O)NC3=O)C4=O)CC1)C(C)(C)c1[nH]c3cc(C#N)ccc3c1C2=O` (stereo not shown) [SIAIS350081, 8-(4-(5-(2-(2,6-dioxopiperidin-3-yl)-1-oxoisoindolin-4-yl)pentyl)piperazin-1-yl)-9-ethyl-6,6-dimethyl-11-oxo-6,11-dihydro-5H-benzo[b]carbazole-3-carbonitrile], the IC50 came out at 6.5 ± 4 nM.
As to `CCc1cc2c(cc1N1CCC(N3CCN(CCCCCc4cccc5c4CN(C4CCC(=O)NC4=O)C5=O)CC3)CC1)C(C)(C)c1[nH]c3cc(C#N)ccc3c1C2=O` (stereo not shown) [SIAIS350083, 8-(4-(4-(5-(2-(2,6-dioxopiperidin-3-yl)-1-oxoisoindolin-4-yl)pentyl)piperazin-1-yl)piperidin-1-yl)-9-ethyl-6,6-dimethyl-11-oxo-6,11-dihydro-5H-benzo[b]carbazole-3-carbonitrile], the IC50 was 1.1 ± 0.7 nM.
